Measurements taken from US20250059184A1 (priority 2021, published 2025).

Experiments:
5-HT2A [1] = molecular target: T1, 5-HT2A (Homo sapiens, UniProt P28223); assay: Serotonin 5-HT2A in vitro cellular IPOne agonism assay (HTRF); type: cell-based; design: host or cells: CHO-K1; settings: CHO-K1 cells, agonist mode
Description: (§1) Serotonin 5-HT2A In Vitro Cellular IPOne Agonism Assay. The 5-HT2A IPOne HTRF assay was performed at Epics Therapeutics S.A. (Belgium, FAST-0505I) using conventional methods. Briefly, CHO-K1 cells expressing human recombinant 5-HT2A receptor grown to mid-log phase in culture media without antibiotics were detached with PBS-EDTA, centrifuged, and resuspended in medium without antibiotics buffer. 20,000 cells were distributed in a 96 well plate and incubated overnight at 37° C. with 5% Co2.
For agonist testing, the medium was removed and 20 μl of assay buffer plus 20 μl of test compound or reference agonist were added in each well. The plate was incubated for 60 min. at 37° C. with 5% CO2.
(§2) After addition of the lysis buffer containing IP1-d2 and anti-IP1 cryptate detection reagents, plates were incubated 1-hour at room temperature, and fluorescence ratios were measured according to the manufacturer specification, with the HTRF kit.

5-HT2A [2] = molecular target: T1, 5-HT2A; assay: Serotonin 5-HT2A in vitro radioligand binding competition assay ([3H]-DOI); design: purchased Epics Therapeutics S.A. (Belgium) FAST-0505B; settings: [3H]-DOI radiotracer, membrane extracts
Description: Serotonin 5-HT2A In Vitro Radioligand Binding Competition Assay. The 5-HT2A radioligand binding competition assay was performed at Epics Therapeutics S.A. (Belgium, FAST-0505B) using conventional methods. Briefly, competition binding was performed in duplicate in the wells of a 96 well plate (Master Block, Greiner, 786201) containing binding buffer (optimized for each receptor), membrane extracts (amount of protein/well optimized for each receptor), radiotracer [^3H]-DOI (final concentration optimized for each receptor) and test compound. Nonspecific binding was determined by co-incubation with 200-fold excess of cold competitor. The samples were incubated in a final volume of 0.1 ml at a temperature and for a duration optimized for each receptor and then filtered over filter plates. Filters were washed six times with 0.5 ml of ice-cold washing buffer (optimized for each receptor) and 50 μl of Microscint 20 (Packard) were added in each well. The plates were incubated 15 min on an orbital shaker and then counted with a TopCount™ for 1 min/well.

5-HT2A [3] = molecular target: T1, 5-HT2A; assay: Serotonin 5-HT2A in vitro cellular IPOne antagonism assay (HTRF); type: cell-based; design: host or cells: CHO-K1; settings: CHO-K1 cells, reference agonist α-Me-5HT; read-out: 5-HT2A IPOne Antagonist Activity
Description: as §1, with “Antagonism” for “Agonism”, “FAST-O0505) in antagonism mode” for “FAST-0505I)”
For antagonist testing, a reference agonist α-Me-5HT was added and fluorescence signal monitored for several minutes, followed by addition of 20 μl of assay buffer plus 20 μl of test compound or reference antagonist ketanserin, in each well. The plate was incubated for 60 min. at 37° C. with 5% CO2.
as §2

T1 sequence (P28223 whole entry): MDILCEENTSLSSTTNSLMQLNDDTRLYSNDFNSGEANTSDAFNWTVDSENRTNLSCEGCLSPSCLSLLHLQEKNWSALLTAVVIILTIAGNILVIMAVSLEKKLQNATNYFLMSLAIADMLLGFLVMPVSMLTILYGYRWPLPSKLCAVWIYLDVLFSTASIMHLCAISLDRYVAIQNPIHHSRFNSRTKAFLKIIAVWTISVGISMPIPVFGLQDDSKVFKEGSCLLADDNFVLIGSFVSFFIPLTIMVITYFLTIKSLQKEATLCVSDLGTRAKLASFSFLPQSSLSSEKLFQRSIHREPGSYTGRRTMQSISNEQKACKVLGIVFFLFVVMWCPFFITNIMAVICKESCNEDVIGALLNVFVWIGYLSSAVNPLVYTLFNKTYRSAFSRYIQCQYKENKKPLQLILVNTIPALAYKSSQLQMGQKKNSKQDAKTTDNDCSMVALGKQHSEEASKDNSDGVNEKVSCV

SMILES	EC50 (5-HT2A [1]) [µM]	IC50 (5-HT2A [2]) [µM]	IC50 (5-HT2A [3]) [µM]
NCCc1ncc2ccccn12 [Compound 1, 2-(imidazo[1,5-a]pyridin-3-yl)ethan-1-amine]	> 10	1 to 10	
CC(N)Cc1ncc2ccccn12 (stereo not drawn) [Compound 2, 1-(imidazo [1,5-a]pyridin-3-yl)propan-2-amine]	0.101 to 1	1 to 10	
COc1ccn2c(CC(C)N)ncc2c1 (stereo not drawn) [Compound 3, 1-(7-methoxyimidazo[1,5-a]pyridin-3-yl)propan-2-amine]	> 10	1 to 10	
CC(N)Cc1ncc2cc(F)ccn12 (stereo not drawn) [Compound 4, 1-(7-fluoroimidazo[1,5-a]pyridin-3-yl)propan-2-amine]	> 10	0.101 to 1	1 to 10
Cc1nc(CC(C)N)n2ccc(F)cc12 (stereo not drawn) [Compound 5, 1-(7-fluoro-1-methylimidazo [1,5-a]pyridin-3-yl)propan-2-amine]	1 to 10	1 to 10	
CC(C)(N)Cc1ncc2ccccn12 [Compound 6, 1-(imidazo [1,5-a]pyridin-3-yl)-2-methylpropan-2-amine]	> 10	1 to 10	0.101 to 1
Cc1cccc2cnc(CC(C)N)n12 (stereo not drawn) [Compound 7, 1-(5-methylimidazo[1,5-a]pyridin-3-yl)propan-2-amine]	1 to 10	1 to 10	
Cc1cccn2c(CC(C)N)ncc12 (stereo not drawn) [Compound 8, 1-(8-methylimidazo[1,5-a]pyridin-3-yl)propan-2-amine]	1 to 10	1 to 10	> 10
Cc1ccn2c(CC(C)N)ncc2c1 (stereo not drawn) [Compound 9, 1-(7-methylimidazo[1,5-a]pyridin-3-yl)propan-2-amine]	1 to 10	1 to 10	> 10
Cc1ccc2cnc(CC(C)N)n2c1 (stereo not drawn) [Compound 10, 1-(6-methylimidazo[1,5-a]pyridin-3-yl)propan-2-amine]	1 to 10	1 to 10	
Cc1nc(CC(C)N)n2ccccc12 (stereo not drawn) [Compound 11, 1-(1-methylimidazo[1,5-a]pyridin-3-yl)propan-2-amine]	1 to 10	1 to 10	
c1ccn2c(C3CCNC3)ncc2c1 (stereo not drawn) [Compound 12, 3-(Pyrrolidin-3-yl)imidazo[1,5-a]pyridine]	> 10	1 to 10	1 to 10
c1ccn2c(CC3CCCN3)ncc2c1 (stereo not drawn) [Compound 13, 3-(Pyrrolidin-2-ylmethyl)imidazo[1,5-a]pyridine]	> 10	1 to 10	1 to 10
CN(C)CCc1ncc2ccccn12 [Compound 14, 2-(Imidazo[1,5-a]pyridin-3-yl)-N,N-dimethylethan-1-amine]	> 10	1 to 10	1 to 10
COc1ccn2c(CC(C)N(C)C)ncc2c1 (stereo not drawn) [Compound 16, 1-(7-methoxyimidazo[1,5-a]pyridin-3-yl)-N,N-dimethylpropan-2-amine]	> 10	> 10	
Cc1nc(CC(C)N(C)C)n2ccc(F)cc12 (stereo not drawn) [Compound 18, 1-(7-fluoro-1-methylimidazo [1,5-a]pyridin-3-yl)-N,N-dimethylpropan-2-amine]	> 10	1 to 10	
Cc1cccc2cnc(CC(C)N(C)C)n12 (stereo not drawn) [Compound 20, N,N-dimethyl-1-(5-methylimidazo [1,5-a]pyridin-3-yl)propan-2-amine]	> 10	> 10	
Cc1cccn2c(CC(C)N(C)C)ncc12 (stereo not drawn) [Compound 21, N,N-dimethyl-1-(8-methylimidazo [1,5-a]pyridin-3-yl)propan-2-amine]	> 10	1 to 10	
Cc1ccn2c(CC(C)N(C)C)ncc2c1 (stereo not drawn) [Compound 22, N,N-dimethyl-1-(7-methylimidazo [1,5-a]pyridin-3-yl)propan-2-amine]	> 10	> 10	
Cc1ccc2cnc(CC(C)N(C)C)n2c1 (stereo not drawn) [Compound 23, N,N-dimethyl-1-(6-methylimidazo [1,5-a]pyridin-3-yl)propan-2-amine]	> 10	> 10	

SMILES	EC50 (5-HT2A [1]) [µM]	IC50 (5-HT2A [2]) [µM]	IC50 (5-HT2A [3]) [µM]
Cc1nc(CC(C)N(C)C)n2ccccc12 (stereo not drawn) [Compound 24, N,N-dimethyl-1-(1-methylimidazo [1,5-a]pyridin-3-yl)propan-2-amine]	> 10	> 10	
CCN(CC)C(C)Cc1ncc2ccccn12 (stereo not drawn) [Compound 25, N,N-diethyl-1-(imidazo[1,5-a]pyridin-3-yl)propan-2-amine]	> 10	1 to 10	
CC(Cc1ncc2ccccn12)N1CCOCC1 (stereo not drawn) [Compound 28, 4-(1-(Imidazo[1,5-a]pyridin-3-yl)propan-2-yl)morpholine]	> 10	1 to 10	
C[C@@H](Cc1ncc2ccccn12)N(C)C [Compound 29, (S)-1-(imidazo[1,5-a]pyridin-3-yl)-N,N-dimethylpropan-2-amine]	> 10	1 to 10	
CC(N)Cc1cnc2ccccn12 (stereo not drawn) [Compound 33, 1-(imidazo[1,2-a]pyridin-3-yl)propan-2-amine]	> 10	> 10	
COc1ccn2c(CC(C)N)cnc2c1 (stereo not drawn) [Compound 34, 1-(7-methoxyimidazo[1,2-a]pyridin-3-yl)propan-2-amine]	> 10	> 10	
CC(N)Cc1cnc2cc(F)ccn12 (stereo not drawn) [Compound 35, 1-(7-Fluoroimidazo[1,2-a]pyridin-3-yl)propan-2-amine]	> 10	> 10	
CC(Cc1cnc2ccccn12)N(C)C (stereo not drawn) [Compound 36, 1-(imidazo[1,2-a]pyridin-3-yl)-N,N-dimethylpropan-2-amine]	> 10	> 10	
COc1ccn2c(CC(C)N(C)C)cnc2c1 (stereo not drawn) [Compound 37, 1-(7-Methoxyimidazo[1,2-a]pyridin-3-yl)-N,N-dimethylpropan-2-amine]	> 10	> 10	
CC(Cc1cnc2cc(F)ccn12)N(C)C (stereo not drawn) [Compound 38, 1-(7-Fluoroimidazo[1,2-a]pyridin-3-yl)-N,N-dimethylpropan-2-amine]	> 10	> 10	
NCCc1ncn2ccccc12 [Compound 39, 2-(Imidazo[1,5-a]pyridin-1-yl)ethan-1-amine]	1 to 10	1 to 10	
CC(N)Cc1ncn2ccccc12 (stereo not drawn) [Compound 40, 1-(imidazo[1,5-a]pyridin-1-yl)propan-2-amine]	> 10	1 to 10	
Cc1nc(CCN)c2ccccn12 [Compound 41, 2-(3-methylimidazo[1,5-a]pyridin-1-yl)ethan-1-amine]	> 10	> 10	
Cc1nc(CC(C)N)c2ccc(F)cn12 (stereo not drawn) [Compound 42, 1-(6-fluoro-3-methylimidazo[1,5-a]pyridin-1-yl)propan-2-amine]	1 to 10	1 to 10	
Cc1nc(CCN(C)C)c2ccccn12 [Compound 45, N,N-dimethyl-2-(3-methylimidazo [1,5-a]pyridin-1-yl)ethan-1-amine]	> 10	> 10	
Cc1nc(CC(C)N(C)C)c2ccc(F)cn12 (stereo not drawn) [Compound 46, 1-(6-fluoro-3-methylimidazo [1,5-a]pyridin-1-yl)-N,N-dimethylpropan-2-amine]	> 10	1 to 10	
NCCc1cnn2ccccc12 [Compound 47, 2-(Pyrazolo[1,5-a]pyridin-3-yl)ethan-1-amine]	> 10	> 10	
CC(N)Cc1cnn2ccccc12 (stereo not drawn) [Compound 48, 1-(pyrazolo[1,5-a]pyridin-3-yl)propan-2-amine]	1 to 10	> 10	
CN(C)CCc1cnn2ccccc12 [Compound 49, N,N-dimethyl-2-(pyrazolo[1,5-a]pyridin-3-yl)ethan-1-amine]	> 10	> 10	
CC(Cc1cnn2ccccc12)N(C)C (stereo not drawn) [Compound 50, N,N-dimethyl-1-(pyrazolo[1,5-a]pyridin-3-yl)propan-2-amine]	> 10	> 10	
